Data reported in patent US7534768B2, “Treatment of DNA viral infections” (Henderson Morely Research and Development Ltd., priority 2000, dated 2009).
Where two headings read alike, the source gives them in different places.

Experiments:
[1] = tested on: Type 1 herpes simplex strain HFEM; assay: Inhibition of hsv1 in infected Vero cells (Example 1); assay type: cell-based, herpes simplex virus; conditions: Human alphaherpesvirus 1, Vero; for inhibition at 1000 µg/mL: frusemide 1 mg/ml, digoxin 30 mcg/ml
Description: . Culture and assay methods follow those described by Lennette and Schmidt (1979) for herpes simplex virus and Vero cells with minor modifications.
Type 1 herpes simplex strain HFEM is a derivative of the Rockerfeller strain HF (Wildy 1955), and Type 2 herpes simplex strain 3345, a penile isolate (Skinner et al 1977) were used as prototype strains. These prototypes were stored at −80° C. until needed.
African Green Monkey kidney cells (vero) were obtained from the National Institute of Biological Standards and Control UK and were used as the only cell line for all experiments in the examples.
Cells and viruses were maintained on Glasgows modified medium supplemented with 10% foetal bovine serum.

[2] = cited from earlier work
[3] = tested on: type 2 herpes simplex strain 3345; assay: Inhibition of hsv2 replication in African green monkey kidney cells (Example 3); assay type: cell-based, herpes simplex virus; conditions: for inhibition at 15 µg/mL: Digoxin 15 mcg/ml; for inhibition at 15 µg/mL / inhibition at 30 µg/mL: Frusemide 0 mg/ml; for inhibition at 30 µg/mL: Digoxin 30 mcg/ml; for Inhibition of virus replication / inhibition at 500 µg/mL: Digoxin 0 mcg/ml; for Inhibition of virus replication: Frusemide 1.0 mg.ml; for inhibition at 500 µg/mL: Frusemide 0.5 mg/ml, read-out: Inhibition of virus replication
From the text: The compositions were applied to different types of vero cells (African green monkey kidney cells and […]) and infected with type 2 herpes simplex virus (strains 3345 and 180) at low, intermediate, and high multiplicities of infection (M0I). Inhibition of virus replication was scored on the scale:
The following results were obtained using African green monkey kidney cells and type 2 herpes simplex strain 3345: […]

[4] = Human alphaherpesvirus 2, read-out: Inhibition of virus replication, HIGH M0I HSV2
[5] = Human alphaherpesvirus 2, read-out: Inhibition of virus replication, INT. M0I HSV2
[6] = Human alphaherpesvirus 2, read-out: Inhibition of virus replication, LOW M0I HSV2

**Q.** What does the source list for `C[C@H]1O[C@@H](O[C@H]2[C@@H](O)C[C@H](O[C@H]3[C@@H](O)C[C@H](O[C@H]4CC[C@@]5(C)[C@H](CC[C@@H]6[C@@H]5C[C@@H](O)[C@]5(C)[C@@H](C7=CC(=O)OC7)CC[C@]65O)C4)O[C@@H]3C)O[C@@H]2C)C[C@H](O)[C@@H]1O` [digoxin]?
**A.** inhibition at 30 µg/mL ([1]; read-out: Inhibition of hsv1, Multiplicity of infection High, frusemide 1 mg/ml, digoxin 30 mcg/ml): 0%; inhibition at 30 µg/mL ([1]; read-out: Inhibition of hsv1, Multiplicity of infection Low, frusemide 1 mg/ml, digoxin 30 mcg/ml): 40%; inhibition at 30 µg/mL ([1]; read-out: Inhibition of hsv1, Multiplicity of infection Medium, frusemide 1 mg/ml, digoxin 30 mcg/ml): 20%; solubility ([2]; in diluted (50%) alcohol and in chloroform): slightly soluble; solubility ([2]; in pyridine): freely soluble; solubility ([2]; in water and in ether): practically insoluble; inhibition at 15 µg/mL [3, 4]: 0%; inhibition at 30 µg/mL [3, 4]: 0%; inhibition at 15 µg/mL [3, 5]: 0%; inhibition at 30 µg/mL [3, 5]: 20%; inhibition at 15 µg/mL [3, 6]: 0%; inhibition at 30 µg/mL [3, 6]: 60%

**Q.** What does the source list for `NS(=O)(=O)c1cc(C(=O)O)c(NCc2ccco2)cc1Cl` [frusemide, 4-chloro-N-furfuryl-5-sulfamoylanthranilic acid]?
**A.** inhibition at 1000 µg/mL ([1]; Multiplicity of infection High): 0%; inhibition at 1000 µg/mL ([1]; Multiplicity of infection Low): 20%; inhibition at 1000 µg/mL ([1]; Multiplicity of infection Medium): 20%; Inhibition of virus replication ([3]; HIGH M0I HSV2): ++ (40% inhibition); inhibition at 500 µg/mL ([3]; Human alphaherpesvirus 2, HIGH M0I HSV2): 0%; inhibition at 500 µg/mL ([3]; Human alphaherpesvirus 2, INT. M0I HSV2): 20%; inhibition at 500 µg/mL ([3]; Human alphaherpesvirus 2, LOW M0I HSV2): 20%; Inhibition of virus replication ([3]; INT. M0I HSV2): +++ (60% inhibition); Inhibition of virus replication ([3]; LOW M0I HSV2): +++ (60% inhibition)
